Measurements reported in patent US5665718A, “Imidazodiazepines” (Hoffmann-La Roche Inc., priority 1994, dated 1997).
Like-named read-outs stand apart in the source and are kept apart here.

Columns and labels:
[1] = target: central benzodiazepine receptors; experiment: Affinity to central benzodiazepine receptors: inhibition of binding of tritiated flumazenil in rat cortex; details: in vitro
Procedure: The affinity of compounds of general formula I to the central benzodiazepine receptors was established in vitro according to the methods described in Nature 294, 763-765 (1981) and J. Neurochemistry 37, 714-722 (1981). According to these methods, the inhibition of the binding of tritiated flumazenil to the specific benzodiazepine receptors in the cortex of rats by the respective test substances is determined. The IC50 ("50% inhibiting concentration") denotes that concentration of the respective test substance which brings about a 50 per cent inhibition of the specific binding of tritiated flumazenil to the specific benzodiazepine receptors in the cortex of rats.

[2] = Rotating rod test (sedative/muscle relaxant properties), i.v.; type: in vivo; details: Mus musculus, iv, mice
Procedure: The sedative/muscle relaxant properties of the compounds of formula I in accordance with the invention can be determined, for example, in the rotating rod test. Mice weighing 19-21 g are used for this test. They have free access to feed and drinking water up to 1 hour before the beginning of the test. They are brought into the test laboratory at least 30 minutes before the test. In the rotating rod test the animals are placed on a horizontally arranged, smooth metal rod having a diameter of 3 cm, which is rotated at 2 revolutions per minute. Initially, the animals are given the opportunity of familiarizing themselves with the test situation for 30 seconds. Subsequently, those animals which succeed in remaining on the rod for at least 1 minute are selected. These animals are then given the test preparations intravenously in different dosages. At various points in time it is then determined whether the animals are able to remain on the rod for a minimum period (minimum period: 10 seconds; from 5 minutes after administration: 1 minute.). That dosages at which 50% of the animals are capable of remaining on the rod (ED 50) is determined.

[3] = Fatalities after i.v. administration to mice; type: in vivo; details: 32 and 100 mg/kg i.v.
[4] = Fatalities after i.v. administration to rats; type: in vivo; details: 32 and 100 mg/kg i.v.
[5] = 15 s, 15 sec after administration, read-out: Rotating rod test, ED50, 15 sec after administration
[6] = 0.5 min, 30 sec after administration, read-out: Rotating rod test, ED50, 30 sec after administration
[7] = 1 min, 60 sec after administration, read-out: Rotating rod test, ED50, 60 sec after administration
[8] = 2 min, 2 min after administration, read-out: Rotating rod test, ED50, 2 min after administration
[9] = 5 min, 5 min after administration, read-out: Rotating rod test, ED50, 5 min after administration
[10] = 0.25 h, 15 min after administration, read-out: Rotating rod test, ED50, 15 min after administration
[11] = 0.5 h, 30 min after administration, read-out: Rotating rod test, ED50, 30 min after administration
[12] = 1 h, 60 min after administration, read-out: Rotating rod test, ED50, 60 min after administration

Compound | IC50 [1] | ED50 [2, 5] | ED50 [2, 6] | ED50 [2, 7] | ED50 [2, 8] | ED50 [2, 9] | ED50 [2, 10] | ED50 [2, 11] | ED50 [2, 12] | fatalities [3] | fatalities [4]
CCCN(CCC)Cc1nnc(-c2ncn3c2CN(C)C(=O)c2c(Cl)cccc2-3)o1 [L, 7-chloro-3-(5-dipropylaminomethyl-1,3,4-oxadiazol-2-yl)-5-methyl-5,6-dihydro-4H-imidazo[1,5-a][1,4]benzodiazepin-6-one] | 4.5 nM | 0.3 mg/kg | 0.4 mg/kg | 0.6 mg/kg | 1.5 mg/kg | 5 mg/kg | > 10 mg/kg | > 10 mg/kg | > 10 mg/kg |  | 
CCCN(CCC)Cc1nc(-c2ncn3c2CN(C)C(=O)c2c(F)cccc2-3)no1 [J, 7-fluoro-5-methyl-3-(5-dipropylaminomethyl-1,2,4-oxadiazol-3-yl)-5,6-dihydro-4H-imidazo[1,5-a][1,4]benzodiazepin-6-one] | 2.3 nM | 0.1 mg/kg | 0.2 mg/kg | 0.3 mg/kg | 0.4 mg/kg | 1.1 mg/kg | > 10 mg/kg | > 10 mg/kg | > 10 mg/kg |  | 
CCN(CC)Cc1nc(-c2ncn3c2CN(C)C(=O)c2c(Cl)cccc2-3)no1 [K, 7-chloro-3-(5-diethylaminomethyl-1,2,4-oxadiazol-3-yl)-5-methyl-5,6-dihydro-4H-imidazo[1,5-a][1,4]benzodiazepin-6-one] | 1.4 nM | 0.1 mg/kg | 0.3 mg/kg | 0.3 mg/kg | 0.6 mg/kg | 2 mg/kg | ≥ 10 mg/kg | ≥ 10 mg/kg | ≥ 10 mg/kg |  | 
CCN(CC)Cc1nc(-c2ncn3c2CN(C)C(=O)c2cc(F)ccc2-3)no1 [H, 3-(5-diethylaminomethyl-1,2,4-oxadiazol-3-yl)-8-fluoro-5-methyl-5,6-dihydro-4H-imidazo[1,5-a][1,4]benzodiazepin-6-one] | 25 nM | 0.1 mg/kg | 0.2 mg/kg | 0.4 mg/kg | 0.7 mg/kg | 1.2 mg/kg | 4.3 mg/kg | 5.1 mg/kg | > 10 mg/kg |  | 
CCCN(CCC)Cc1nnc(-c2ncn3c2CN(C)C(=O)c2cc(F)ccc2-3)o1 [G, 3-(5-dipropylaminomethyl-1,3,4-oxadiazol-2-yl)-8-fluoro-5-methyl-5,6-dihydro-4H-imidazo[1,5-c][1,4]benzodiazepin-6-one] | 18.3 nM | 0.3 mg/kg | 0.3 mg/kg | 0.7 mg/kg | 1.1 mg/kg | 3.6 mg/kg | ≥ 10 mg/kg | > 10 mg/kg | > 10 mg/kg |  | 
CCN(CC)Cc1nc(-c2ncn3c2[C@@H]2CCN2C(=O)c2sccc2-3)no1 [M, (S)-1-(5-diethylaminomethyl-1,2,4-oxadiazol-3-yl)-11,11a-dihydro-8H,10H-azeto[1,2-a]imidazo[5,1-c]thieno[3,2-e][1,4]diazepin-8-one] | 6.5 nM | 0.2 mg/kg | 0.3 mg/kg | 0.3 mg/kg | 1.1 mg/kg | 2.1 mg/kg | > 10 mg/kg | > 10 mg/kg | > 10 mg/kg |  | 
CC(C)N(Cc1nc(-c2ncn3c2CN(C)C(=O)c2ccccc2-3)no1)C(C)C [O, 3-(5-diisopropylaminomethyl-1,2,4-oxadiazol-3-yl)-5-methyl-5,6-dihydro-4H-imidazo[1,5-a][1,4]benzodiazepin-6-one] | 6.4 nM | 0.3 mg/kg | 0.5 mg/kg | 0.7 mg/kg | 1 mg/kg | 3 mg/kg | > 10 mg/kg | > 10 mg/kg | > 10 mg/kg |  | 
CCCN(CCC)Cc1nc(-c2ncn3c2[C@@H]2CCN2C(=O)c2sccc2-3)no1 [B, (S)-1-(5-dipropylaminomethyl-1,2,4-oxadiazol-3-yl)-11,11a-dihydro-8H,10H-azeto[1,2-a]imidazo[5,1-c]thieno[3,2-e][1,4]diazepin-8-one] | 4.3 nM | 0.1 mg/kg | 0.1 mg/kg | 0.2 mg/kg | 0.4 mg/kg | 0.7 mg/kg | 3.5 mg/kg | > 10 mg/kg | > 10 mg/kg | without fatalities occurring | without fatalities occurring
CC(C)N(Cc1nc(-c2ncn3c2CN(C)C(=O)c2cc(F)ccc2-3)no1)C(C)C [P, 3-(5-diisopropylaminomethyl-1,2,4-oxadiazol-3-yl)-8-fluoro-5-methyl-5,6-dihydro-4H-imidazo[1,5-a][1,4]benzodiazepin-6-one] | 4.1 nM | 0.1 mg/kg | 0.2 mg/kg | 0.3 mg/kg | 0.7 mg/kg | 1 mg/kg | 4.3 mg/kg | ≥ 10 mg/kg | > 10 mg/kg |  | 
CCCN(CCC)Cc1nc(-c2ncn3c2CN(C)C(=O)c2cc(F)ccc2-3)no1 [D, 3-(5-dipropylaminomethyl-1,2,4-oxadiazol-3-yl)-8-fluoro-5-methyl-5,6-dihydro-4H-imidazo[1,5-a][1,4]benzodiazepin-6-one] | 3.3 nM | 0.2 mg/kg | 0.2 mg/kg | 0.3 mg/kg | 0.3 mg/kg | 0.8 mg/kg | 2.6 mg/kg | > 10 mg/kg | > 10 mg/kg | without fatalities occurring | without fatalities occurring
CCCCN(CCCC)Cc1nnc(-c2ncn3c2[C@@H]2CCN2C(=O)c2sccc2-3)o1 [N, (S)-1-(5-dibutylaminomethyl-1,3,4-oxadiazol-2-yl)-11,11a-dihydro-8H,10H-azeto[1,2-a]imidazo[5,1-c]thieno[3,2-e][1,4]diazepin-8-one] | 4.8 nM | 0.3 mg/kg | 0.3 mg/kg | 0.3 mg/kg | 0.6 mg/kg | 2.4 mg/kg | > 10 mg/kg | > 10 mg/kg | > 10 mg/kg |  | 
O=C1c2c(Cl)cccc2-n2cnc(-c3noc(CN4CCCCC4)n3)c2[C@@H]2CCN12 [I, (S)-8-chloro-1-[5-(piperidin-1-yl)methyl-1,2,4-oxadiazol-3-yl]-12,12a-dihydro-9H,11H-azeto[2,1-c]imidazo[1,5-a][1,4]benzodiazepin-9-one] | 4.4 nM | 0.1 mg/kg | 0.7 mg/kg | 0.7 mg/kg | 1 mg/kg | 1.1 mg/kg | 3.1 mg/kg | ≥ 10 mg/kg | > 10 mg/kg |  | 
CCCN(CCC)Cc1nc(-c2ncn3c2CN(C)C(=O)c2ccccc2-3)no1 [F, 3-(5-dipropylaminomethyl-1,2,4-oxadiazol-3-yl)-5-methyl-5,6-dihydro-4H-imidazo[1,5-a][1,4]benzodiazepin-6-one] | 6.9 nM | 0.2 mg/kg | 0.4 mg/kg | 0.5 mg/kg | 0.9 mg/kg | ≥ 10 mg/kg | > 10 mg/kg | > 10 mg/kg | > 10 mg/kg |  | 
CCCN(CCC)Cc1nc(-c2ncn3c2[C@@H]2CCN2C(=O)c2c(Cl)cccc2-3)no1 [A, (S)-8-chloro-1-(5-dipropylaminomethyl-1,2,4-oxadiazol-3-yl)-12,12a-dihydro-9H,11H-azeto[2,1-c]imidazo[1,5-a][1,4]benzodiazepin-9-one] | 13 nM | 0.3 mg/kg | 0.3 mg/kg | 0.7 mg/kg | 0.8 mg/kg | 1.4 mg/kg | 2.1 mg/kg | 7.3 mg/kg | > 10 mg/kg | without fatalities occurring | without fatalities occurring
CN1Cc2c(-c3noc(CN4CCCCC4)n3)ncn2-c2ccc(F)cc2C1=O [C, 8-fluoro-5-methyl-3-[5-(piperidin-1-ylmethyl)-1,2,4-oxadiazol-3-yl]-5,6-dihydro-4H-imidazo[1,5-a][1,4]benzodiazepin-6-one] | 50 nM | 0.8 mg/kg | 0.8 mg/kg | 1.2 mg/kg | 1.6 mg/kg | 3.2 mg/kg | ≥ 10 mg/kg | > 10 mg/kg | > 10 mg/kg |  | 
C=CCN(CC=C)Cc1nc(-c2ncn3c2[C@@H]2CCN2C(=O)c2c-3ccc(F)c2Cl)no1 [E, (S)-1-(5-diallylaminomethyl-1,2,4-oxadiazol-3-yl)-8-chloro-7-fluoro-12,12a-dihydro-9H,11H-azeto[2,1-c]imidazo[1,5-a][1,4]benzodiazepin-9-one] | 10 nM | 0.2 mg/kg | 0.3 mg/kg | 0.3 mg/kg | 0.4 mg/kg | 0.8 mg/kg | 3.9 mg/kg | ≥ 10 mg/kg | > 10 mg/kg | without fatalities occurring | without fatalities occurring
